# How the values were obtained:
# A20 tumor cells = assay: A20 murine lymphoma (B lymphocytes) homotransplantation model; format: in vivo, BALB/c mice; settings: for TGI (%): 50 mg/kg p.o. QD
# Experimental: A20 murine lymphoma (B lymphocyte) homotransplantation model is a classic pharmaceutical effect evaluation model for B lymphocyte cancer. It was constructed by subcutaneously inoculating homogeneous A20 tumor cells into the right ribs of female BALB/c mice by the same species. The test compounds were administrated to evaluate their inhibitory effects on tumor growth in the model.
# (§1) A20 tumor cells were cultured in an RPMI 1640 medium containing inactivated 10% fetal bovine serum, 100 U/ml penicillin, 100 μg/ml streptomycin and 0.05 mM 2-mercaptoethanol in an incubator at 37° C. in the presence of 5% CO2; and after the cells grew all over, the tumor cells were divided and passaged in respective flasks every 3 to 4 days. The tumor cells in the logarithmic growth phase were used for in vivo inoculation of tumors.
# The A20 tumor cells resuspended in a serum-free RPMI 1640 culture solution were inoculated subcutaneously at 3×10^5/100 μl to the right ribs of experimental animals. A total of 30 animals were inoculated. On the first day after tumor cell inoculation, 24 animals with a uniform body weight were selected in terms of body weight, and were grouped for dosage, with 12 animals in each group. The specific dosage regimen was carried out according to the experimental design.
# (§2) Tumor volume: the tumor volume was measured 3 times a week with a vernier caliper, and the long and short diameters of the tumor were measured. The volume was calculated with a formula as follows:
# (§3) volume=0.5×long diameter×short diameter^2.
# Tumor growth inhibition rate (TGI, %)=(1−T/C)×100,
# (§4) T/C(%)=(average tumor volume of treatment groups on the current day-average tumor volume of treatment groups on the initial day D0)/(average tumor volume of the control group on the current day-average tumor volume of the control group on the initial day D0)×100.
# Statistical analysis of tumor volume was carried out between groups by the SPSS T-test.
# B16F10 tumor cells = assay: B16F10 murine melanoma model; format: in vivo; settings: for Tumor inhibition rate (%): Day 18
# Experimental: The B16F10 murine melanoma model is a classic melanoma pharmaceutical effect evaluation model, which is made by subcutaneously inoculating the same B16F10 tumor cells into female C57BL/6 mice. The test compounds were administrated to evaluate their inhibitory effects on tumor growth in the model.
# as §1, with “B16F10” for “A20”, “a DMEM” for “an RPMI 1640”, “2” for “0.05”, “glutamine” for “2-mercaptoethanol”
# The B16F10 tumor cells resuspended in a serum-free DMEM culture solution were inoculated subcutaneously at 1×10^5/100 μl to the right ribs of experimental animals. In the second group, when the tumor grew to 75 mm^3, 12 animals with a uniform tumor volume were selected and administered according to the experimental design.
# The first day of tumor inoculation was D0, the first, third, and fourth groups were dosed on the second day of tumor inoculation, and the second group was dosed when the tumor volume reached 75 mm^3.
# as §2, §3
# Tumor growth inhibition rate (TGI, %)=(1-T/C)×100.
# as §4
compound,measurement,setting,value
"Nc1nc(NCCc2ccc(NC3COC3)cc2)nc2nc(-c3ccco3)nn12 [Compound 22, 2-(furan-2-yl)-N5-(4-(oxetan-3-ylamino)phenethyl)-[1,2,4]triazolo[1,5-a][1,3,5]triazine-5,7-diamine]",Clinical abnormalities during the dosage,A20 tumor cells; 50 mg/kg p.o. QD 24 days,no obvious clinical abnormalities were observed
same,TGI (%),A20 tumor cells; Day 6 after tumor inoculation,11.9%
same,TGI (%),A20 tumor cells; Day 8,8.4%
same,TGI (%),A20 tumor cells; Day 10,7.0%
same,TGI (%),A20 tumor cells; Day 13,16.5%
same,TGI (%),A20 tumor cells; Day 15,29.4%
same,TGI (%),A20 tumor cells; Day 17,32.6%
same,TGI (%),A20 tumor cells; Day 20,28.5%
same,TGI (%),A20 tumor cells; Day 22,36.4%
same,TGI (%),A20 tumor cells; Day 24,35.6%
same,Tumor inhibition rate (%),B16F10 tumor cells; 50 mg/kg p.o. QD,22.1%
same,Tumor inhibition rate (%),B16F10 tumor cells; 50 mg/kg p.o. QD + Anti PD-1 10 mg/kg i.p. 2/WK,48.1%
same,Animal death / changes in body weight,B16F10 tumor cells; alone or combined with anti PD-1,No animal death or significant changes in body weight

# — patent US20230048888A1, “USE OF TRIAZOLOTRIAZINE DERIVATIVE IN TREATMENT OF DISEASES” (ZHEJIANG VIMGREEN PHARMACEUTICALS, LTD., priority 2019, published 2023)
